Here are results for 4 molecules from patent publication US20060110468A1, “Herbal formulations for arthritis” (priority 2004, published 2006).

The structures appear in SMILES notation.

Assay [1] has as its system writhing activity of mice induced by acetic acid. The assay is described as follows: Acetic acid writhing test in mice. In kind it is in vivo, ICR mice. The following applies: one hour after administration; for The number of writhing episodes: mice. How it is done: In the writhing test, acetic acid is injected into the intraperitoneal cavity of mice. This induces acute inflammatory pain characterized by a contraction wave of abdominal musculature through stretching of the hind limbs that is called writhing, and the number of writhing episodes is evaluated.
Male and female ICR mice weighing 18 g to 25 g were fasted for one day before the test. […] The animals were then placed in individual 101×15 cm Plexiglas observation chambers for a 10-min acclimatization period. Acetic acid, 0.8% in 0.85% saline was injected i.p. into each mouse the animals were then returned into their respective transparent chambers.
The animals were then observed for a specific period (15 or 20 mins) and the number of writhing episodes was counted. For scoring purpose, a writhe was indicated by a contraction wave of abdominal musculature with simultaneous stretching of at least one hind limb.
(§1) Values are presented as mean±SD.
A general note: An intraperitoneal irritant provokes the stretching counted in writhing tests.

The subject of assay [2] is rat paw edema evoked by egg white. The assay is described as follows: Egg white induced paw edema test in rats. It is filed as in vivo. The note with it: 8 mg/kg. How it is done:
(§2) The anti-inflammatory effects of above extracts of the present invention were investigated in acute inflammatory models induced by either carrageenan or egg white.
(§3) Rats received a subplantar injection of carrageenan (0.1 ml of a 1% suspension in 0.85% saline; Sigma Chemical Co., St Louis, Mo., USA) or egg white (0.1 ml of a 10% solution in 0.85% saline) in the left hind paw. The total volume injected was 0.1 ml.
(§4) Indomethacin was administered to animals in the positive control group.
(§5) The volume of paw edema (in ml) was measured in each animal using a plethysmometer (Plethysmometer 7150, Ugo Basile, Italy) to a precision of two decimal places. The measurements were made immediately before and 2, 4, 6, 24 h after the carrageenan injection or 1, 2, 3, and 4 h after the injection of egg white. The swelling rate of paw was the percentage difference in paw volume and calculated by the following equation: Swelling rate (%)=(A−B)×100/B, where A represents the paw volume at different time points after injection, and B represents the paw volume before injection.
as §1

In assay [3] the test system is rat paw edema evoked by carrageenan. The assay is described as follows: Carrageenan induced paw edema test in rats. The following applies: 10 mg/kg. In kind it is in vivo. As to the method: as §2, §3, §4, §5, §1
On the technique in general: The carrageenan paw model is a standard test of acute inflammation.

For the molecule `COc1cc2c(cc1OC)[C@@H]1Cc3ccc(OC)c(OC)c3CN1CC2` [Tetrahydropalmatine], in assay [1] (0.090 g/kg), the “The number of writhing episodes” value turned out to be 11 ± 6.
In the case of `C[C@@H]1C[C@H]2[C@@H]3CCC4=CC(=O)C=C[C@]4(C)[C@@]3(F)[C@@H](O)C[C@]2(C)[C@@]1(O)C(=O)CO` [Dexamethasone], the “Swelling percentage of paw volume after stimulation (%) 1 hr” value in assay [2] (1 hr) came to 26.66 ± 3.34 %. The “Swelling percentage of paw volume after stimulation (%) 2 hr” value in assay [2] (2 hr) is recorded as 19.31 ± 5.83 %. Also, the “Swelling percentage of paw volume after stimulation (%) 3 hr” value in assay [2] (3 hr) came out at 9.12 ± 4.42 %. Moreover, the “Swelling percentage of paw volume after stimulation (%) 4 hr” value in assay [2] (4 hr) is recorded as 7.49 ± 4.08%.
As to `COC1=C[C@@H]2[C@@H]3Cc4ccc(OC)c(O)c4[C@]2(CCN3C)CC1=O` [Sinomenine], the “The number of writhing episodes” value in assay [1] (0.0375 g/kg) was 25 ± 9. The “inhibition to the writhing activity of mice induced by acetic acid (in words)” value in assay [1] (tetrahydropalmatine 0.09 g/kg, sinomenine 0.0375 g/kg, capsule 12.7 g/kg and 25.50 g/kg) is listed as “significant compared to control group”.
Take `COc1ccc2c(c1)c(CC(=O)O)c(C)n2C(=O)c1ccc(Cl)cc1` [Indomethacin]: the “inhibition of swelling evoked by carrageenan (in words)” value in assay [3] (positive control, not observed at 24 hrs after stimulation) is “inhibited the swelling within 7 hrs after drug administration”. Also, the “Percentage change in swelling after injecting carrageenan (%) 2 hour” value in assay [3] (rat, 2 hour) is recorded as 12.27 ± 4.61 %. In addition, the “Percentage change in swelling after injection of carrageenan (%) 2 hour” value in assay [3] (rat, 2 hour (Table 13)) is reported as 12.27 ± 4.61 %. Also, the “Percentage change in swelling after injecting carrageenan (%) 4 hour” value in assay [3] (rat, 4 hour) stood at 15.12 ± 7.85 %. In addition, the “Percentage change in swelling after injection of carrageenan (%) 4 hour” value in assay [3] (rat, 4 hour (Table 13)) amounted to 15.12 ± 7.85 %. The “Percentage change in swelling after injecting carrageenan (%) 6 hour” value in assay [3] (rat, 6 hour) came out at 15.32 ± 7.84 %. Also, the “Percentage change in swelling after injection of carrageenan (%) 6 hour” value in assay [3] (rat, 6 hour (Table 13)) was 15.32 ± 7.84 %. In assay [3] (rat, 24 hour), the “Percentage change in swelling after injecting carrageenan (%) 24 hour” value was 35.36 ± 14.65%. The “Percentage change in swelling after injection of carrageenan (%) 24 hour” value in assay [3] (rat, 24 hour (Table 13)) was 35.36 ± 14.65%.
